According to PMC7385619, “A triple action CDK4/6-PI3K-BET inhibitor with augmented cancer cell cytotoxicity” (Cell Discovery, 2020):
Where two headings read alike, the source gives them in different places.

Columns and labels:
Assay in all cases: KINOMEscan assay (Eurofins DiscoverX)
Type in all cases: binding
[1] = biological target: T1, kinome (kinase panel) (Homo sapiens, UniProt O60674); conditions: JAK2(JH1domain-catalytic); 1000 nM; read-out: Percent Control
T1 construct: purchased Eurofins DiscoverX

[2] = biological target: T2, kinome (kinase panel) (Homo sapiens, UniProt P00533, DEL746-750); conditions: EGFR(E746-A750del); 1000 nM; read-out: Percent Control
T2 construct: purchased Eurofins DiscoverX

[3] = biological target: T3, kinome (kinase panel) (Homo sapiens, UniProt P07333); conditions: 1000 nM, read-out: Percent Control
T3 construct: purchased Eurofins DiscoverX

[4] = biological target: T4, kinome (kinase panel) (Homo sapiens, UniProt P22607); conditions: FGFR3; 1000 nM; read-out: Percent Control
T4 construct: purchased Eurofins DiscoverX

[5] = biological target: T5, kinome (kinase panel) (Homo sapiens, UniProt P24723); conditions: PRKCH; 1000 nM; read-out: Percent Control
T5 construct: purchased Eurofins DiscoverX

[6] = biological target: T6, kinome (kinase panel) (Homo sapiens, UniProt P24941); conditions: CDK2; 1000 nM; read-out: Percent Control
T6 construct: purchased Eurofins DiscoverX

[7] = biological target: T7, kinome (kinase panel) (Homo sapiens, UniProt P29376); conditions: LTK; 1000 nM; read-out: Percent Control
T7 construct: purchased Eurofins DiscoverX

[8] = biological target: T8, kinome (kinase panel) (Homo sapiens, UniProt P35626); conditions: GRK3 (Entrez ADRBK2); 1000 nM; read-out: Percent Control
T8 construct: purchased Eurofins DiscoverX

[9] = biological target: T9, kinome (kinase panel) (Homo sapiens, UniProt P36888, D835V); conditions: […]; 1000 nM; read-out: Percent Control
T9 construct: purchased Eurofins DiscoverX

[10] = biological target: T10, kinome (kinase panel) (Homo sapiens, UniProt P36897); conditions: TGFBR1; 1000 nM; read-out: Percent Control
T10 construct: purchased Eurofins DiscoverX

[11] = biological target: T11, kinome (kinase panel) (Homo sapiens, UniProt P42336, C420R); conditions: read-out: Percent Control
T11 construct: purchased Eurofins DiscoverX

[12] = biological target: T12, kinome (kinase panel) (Homo sapiens, UniProt P49761); conditions: CLK3; 1000 nM; read-out: Percent Control
T12 construct: purchased Eurofins DiscoverX

[13] = biological target: T13, kinome (kinase panel) (Homo sapiens, UniProt P54764); conditions: EPHA4; 1000 nM; read-out: Percent Control
T13 construct: purchased Eurofins DiscoverX

[14] = biological target: T14, kinome (kinase panel) (Homo sapiens, UniProt P68400); conditions: CSNK2A1; 1000 nM; read-out: Percent Control
T14 construct: purchased Eurofins DiscoverX

[15] = biological target: T15, kinome (kinase panel) (Homo sapiens, UniProt Q00536); conditions: PCTK1 (Entrez CDK16); 1000 nM; read-out: Percent Control
T15 construct: purchased Eurofins DiscoverX

[16] = biological target: T16, kinome (kinase panel) (Homo sapiens, UniProt Q02156); conditions: PRKCE; 1000 nM; read-out: Percent Control
T16 construct: purchased Eurofins DiscoverX

[17] = biological target: T17, kinome (kinase panel) (Homo sapiens, UniProt Q07912); conditions: TNK2; 1000 nM; read-out: Percent Control
T17 construct: purchased Eurofins DiscoverX

[18] = biological target: T18, kinome (kinase panel) (Homo sapiens, UniProt Q15418); conditions: 1000 nM, read-out: Percent Control
T18 construct: purchased Eurofins DiscoverX

[19] = biological target: T19, kinome (kinase panel) (Homo sapiens, UniProt Q52WX2); conditions: SBK1; 1000 nM; read-out: Percent Control
T19 construct: purchased Eurofins DiscoverX

[20] = biological target: T20, kinome (kinase panel) (Homo sapiens, UniProt Q7KZI7); conditions: MARK2; 1000 nM; read-out: Percent Control
T20 construct: purchased Eurofins DiscoverX

[21] = biological target: T21, kinome (kinase panel) (Homo sapiens, UniProt Q8N5S9); conditions: CAMKK1; 1000 nM; read-out: Percent Control
T21 construct: purchased Eurofins DiscoverX

[22] = biological target: T22, kinome (kinase panel) (Homo sapiens, UniProt Q8NEV4); conditions: MYO3A; 1000 nM; read-out: Percent Control
T22 construct: purchased Eurofins DiscoverX

[23] = biological target: T23, kinome (kinase panel) (Homo sapiens, UniProt Q96NX5); conditions: CAMK1G; 1000 nM; read-out: Percent Control
T23 construct: purchased Eurofins DiscoverX

[24] = biological target: T24, kinome (kinase panel) (Homo sapiens, UniProt Q96PY6); conditions: NEK1; 1000 nM; read-out: Percent Control
T24 construct: purchased Eurofins DiscoverX

[25] = biological target: T25, kinome (kinase panel) (Homo sapiens, UniProt Q99558); conditions: NIK (Entrez MAP3K14); 1000 nM; read-out: Percent Control
T25 construct: purchased Eurofins DiscoverX

[26] = biological target: T26, kinome (kinase panel) (Homo sapiens, UniProt Q9BYP7); conditions: WNK3; 1000 nM; read-out: Percent Control
T26 construct: purchased Eurofins DiscoverX

[27] = biological target: T27, kinome (kinase panel) (Homo sapiens, UniProt Q9H2X6); conditions: HIPK2; 1000 nM; read-out: Percent Control
T27 construct: purchased Eurofins DiscoverX

[28] = biological target: T28, kinome (kinase panel) (Homo sapiens, UniProt Q9NWZ3); conditions: IRAK4; 1000 nM; read-out: Percent Control
T28 construct: purchased Eurofins DiscoverX

[29] = biological target: T29, kinome (kinase panel) (Homo sapiens, UniProt Q9UF33); conditions: EPHA6; 1000 nM; read-out: Percent Control
T29 construct: purchased Eurofins DiscoverX

[30] = biological target: T30, kinome (kinase panel) (Homo sapiens, UniProt Q9UPE1); conditions: SRPK3; 1000 nM; read-out: Percent Control
T30 construct: purchased Eurofins DiscoverX

[31] = biological target: T31, kinome (kinase panel) (Homo sapiens, UniProt Q9Y2K2); conditions: QSK (Entrez KIAA0999); 1000 nM; read-out: Percent Control
T31 construct: purchased Eurofins DiscoverX

[32] = biological target: T32, kinome (kinase panel) (Homo sapiens, UniProt Q9Y463); conditions: DYRK1B; 1000 nM; read-out: Percent Control
T32 construct: purchased Eurofins DiscoverX

T18 sequence (Q15418 whole entry): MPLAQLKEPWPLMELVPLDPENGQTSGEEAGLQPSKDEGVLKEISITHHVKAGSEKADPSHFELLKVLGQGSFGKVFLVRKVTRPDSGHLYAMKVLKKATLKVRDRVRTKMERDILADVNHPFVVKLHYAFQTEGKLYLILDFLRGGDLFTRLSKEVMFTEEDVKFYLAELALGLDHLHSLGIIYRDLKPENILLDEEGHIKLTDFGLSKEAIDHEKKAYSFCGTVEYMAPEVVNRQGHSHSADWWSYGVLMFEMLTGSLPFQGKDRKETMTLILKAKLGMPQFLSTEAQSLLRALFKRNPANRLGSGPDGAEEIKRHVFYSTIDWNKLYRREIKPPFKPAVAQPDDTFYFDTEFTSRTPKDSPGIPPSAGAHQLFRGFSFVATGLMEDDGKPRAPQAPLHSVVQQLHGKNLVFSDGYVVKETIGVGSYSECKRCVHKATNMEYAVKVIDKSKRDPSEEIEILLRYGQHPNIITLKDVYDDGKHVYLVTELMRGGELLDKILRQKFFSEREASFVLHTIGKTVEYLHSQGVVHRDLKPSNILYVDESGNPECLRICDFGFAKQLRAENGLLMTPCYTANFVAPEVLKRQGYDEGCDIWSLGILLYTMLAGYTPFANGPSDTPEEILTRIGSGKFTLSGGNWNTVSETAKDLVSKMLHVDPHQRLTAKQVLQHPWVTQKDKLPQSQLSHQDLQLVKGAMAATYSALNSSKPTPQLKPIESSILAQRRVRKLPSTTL
T3 sequence (P07333 20-972): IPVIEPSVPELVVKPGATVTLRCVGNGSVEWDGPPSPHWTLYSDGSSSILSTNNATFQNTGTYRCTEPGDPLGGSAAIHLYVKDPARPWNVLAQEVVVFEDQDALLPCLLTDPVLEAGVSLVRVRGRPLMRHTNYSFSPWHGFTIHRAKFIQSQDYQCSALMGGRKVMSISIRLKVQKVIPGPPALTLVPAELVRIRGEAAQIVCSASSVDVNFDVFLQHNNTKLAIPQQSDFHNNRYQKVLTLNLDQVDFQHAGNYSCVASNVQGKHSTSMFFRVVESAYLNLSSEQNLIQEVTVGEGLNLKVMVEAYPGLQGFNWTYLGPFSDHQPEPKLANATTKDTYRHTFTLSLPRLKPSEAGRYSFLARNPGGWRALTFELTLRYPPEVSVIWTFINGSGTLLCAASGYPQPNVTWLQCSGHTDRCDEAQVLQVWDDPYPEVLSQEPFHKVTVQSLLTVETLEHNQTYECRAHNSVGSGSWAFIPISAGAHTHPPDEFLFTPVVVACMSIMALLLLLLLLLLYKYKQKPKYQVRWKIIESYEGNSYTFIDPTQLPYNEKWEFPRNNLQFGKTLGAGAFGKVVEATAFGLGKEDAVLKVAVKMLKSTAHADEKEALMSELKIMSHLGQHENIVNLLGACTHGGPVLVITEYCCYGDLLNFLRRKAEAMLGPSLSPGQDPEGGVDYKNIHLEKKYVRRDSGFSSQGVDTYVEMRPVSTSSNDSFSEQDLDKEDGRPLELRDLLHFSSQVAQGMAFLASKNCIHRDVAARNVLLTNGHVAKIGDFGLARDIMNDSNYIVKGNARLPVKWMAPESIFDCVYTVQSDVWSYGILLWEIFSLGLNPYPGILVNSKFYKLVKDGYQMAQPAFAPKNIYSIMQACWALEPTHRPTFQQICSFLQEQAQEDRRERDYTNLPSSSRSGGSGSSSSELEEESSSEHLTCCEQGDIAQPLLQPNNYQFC
T29 sequence (Q9UF33 23-1036): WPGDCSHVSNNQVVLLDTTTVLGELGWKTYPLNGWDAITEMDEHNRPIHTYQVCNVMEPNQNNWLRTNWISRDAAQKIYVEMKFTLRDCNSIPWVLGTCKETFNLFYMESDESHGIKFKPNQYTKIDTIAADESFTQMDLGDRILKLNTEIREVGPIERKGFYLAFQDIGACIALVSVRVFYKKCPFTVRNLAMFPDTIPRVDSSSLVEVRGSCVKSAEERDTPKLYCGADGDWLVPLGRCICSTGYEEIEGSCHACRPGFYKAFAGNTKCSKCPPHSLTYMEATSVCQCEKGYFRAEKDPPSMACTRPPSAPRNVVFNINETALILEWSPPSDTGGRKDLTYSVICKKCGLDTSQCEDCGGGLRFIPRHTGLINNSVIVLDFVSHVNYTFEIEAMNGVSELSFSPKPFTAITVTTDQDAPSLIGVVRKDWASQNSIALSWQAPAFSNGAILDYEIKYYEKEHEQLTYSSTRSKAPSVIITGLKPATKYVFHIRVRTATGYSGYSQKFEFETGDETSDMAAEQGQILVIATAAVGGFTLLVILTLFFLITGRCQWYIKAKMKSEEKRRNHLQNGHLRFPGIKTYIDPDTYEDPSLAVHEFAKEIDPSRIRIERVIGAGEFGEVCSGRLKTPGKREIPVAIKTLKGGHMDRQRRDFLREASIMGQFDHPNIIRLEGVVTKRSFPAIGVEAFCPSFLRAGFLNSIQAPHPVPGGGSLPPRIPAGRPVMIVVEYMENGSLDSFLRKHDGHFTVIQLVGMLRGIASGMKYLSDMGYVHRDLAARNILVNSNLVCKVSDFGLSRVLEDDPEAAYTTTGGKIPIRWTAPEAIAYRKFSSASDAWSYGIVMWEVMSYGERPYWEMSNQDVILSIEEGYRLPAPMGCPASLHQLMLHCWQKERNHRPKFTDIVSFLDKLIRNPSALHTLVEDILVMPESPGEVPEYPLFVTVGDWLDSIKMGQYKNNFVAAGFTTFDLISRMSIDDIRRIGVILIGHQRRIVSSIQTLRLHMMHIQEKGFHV
T8 sequence (P35626 whole entry): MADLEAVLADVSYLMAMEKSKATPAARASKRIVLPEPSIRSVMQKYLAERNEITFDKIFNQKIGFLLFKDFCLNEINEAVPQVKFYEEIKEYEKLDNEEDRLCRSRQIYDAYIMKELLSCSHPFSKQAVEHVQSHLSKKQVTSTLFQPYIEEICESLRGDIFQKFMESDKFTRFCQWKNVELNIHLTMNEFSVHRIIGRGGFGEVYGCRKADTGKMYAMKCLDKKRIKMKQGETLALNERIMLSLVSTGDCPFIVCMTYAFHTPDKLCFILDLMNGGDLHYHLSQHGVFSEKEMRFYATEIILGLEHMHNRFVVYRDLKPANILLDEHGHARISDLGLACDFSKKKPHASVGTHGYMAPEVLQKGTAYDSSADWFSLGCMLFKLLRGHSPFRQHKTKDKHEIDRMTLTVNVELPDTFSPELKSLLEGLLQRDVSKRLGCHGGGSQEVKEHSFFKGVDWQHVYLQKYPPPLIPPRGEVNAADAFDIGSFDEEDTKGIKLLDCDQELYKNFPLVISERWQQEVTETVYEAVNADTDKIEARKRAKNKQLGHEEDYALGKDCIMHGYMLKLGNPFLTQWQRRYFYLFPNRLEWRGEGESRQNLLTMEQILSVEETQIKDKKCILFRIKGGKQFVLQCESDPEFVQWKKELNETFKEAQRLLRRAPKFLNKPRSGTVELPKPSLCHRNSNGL
T5 sequence (P24723 whole entry): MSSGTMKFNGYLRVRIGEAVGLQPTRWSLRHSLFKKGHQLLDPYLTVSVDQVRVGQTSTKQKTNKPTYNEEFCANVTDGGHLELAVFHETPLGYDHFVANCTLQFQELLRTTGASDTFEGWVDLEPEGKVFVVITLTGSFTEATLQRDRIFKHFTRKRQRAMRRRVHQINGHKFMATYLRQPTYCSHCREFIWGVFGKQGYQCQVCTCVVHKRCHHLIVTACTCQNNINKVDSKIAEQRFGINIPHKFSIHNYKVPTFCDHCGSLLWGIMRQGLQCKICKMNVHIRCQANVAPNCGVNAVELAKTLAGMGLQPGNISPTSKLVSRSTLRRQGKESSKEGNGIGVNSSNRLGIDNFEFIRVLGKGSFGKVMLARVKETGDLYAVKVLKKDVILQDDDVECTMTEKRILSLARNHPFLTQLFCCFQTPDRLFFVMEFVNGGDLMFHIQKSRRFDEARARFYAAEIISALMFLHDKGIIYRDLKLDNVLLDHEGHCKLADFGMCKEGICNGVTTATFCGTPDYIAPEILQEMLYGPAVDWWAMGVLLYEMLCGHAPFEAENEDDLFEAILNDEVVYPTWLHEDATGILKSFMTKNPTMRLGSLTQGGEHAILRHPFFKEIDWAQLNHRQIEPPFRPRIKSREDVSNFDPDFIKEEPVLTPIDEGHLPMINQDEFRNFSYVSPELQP
T20 sequence (Q7KZI7 whole entry): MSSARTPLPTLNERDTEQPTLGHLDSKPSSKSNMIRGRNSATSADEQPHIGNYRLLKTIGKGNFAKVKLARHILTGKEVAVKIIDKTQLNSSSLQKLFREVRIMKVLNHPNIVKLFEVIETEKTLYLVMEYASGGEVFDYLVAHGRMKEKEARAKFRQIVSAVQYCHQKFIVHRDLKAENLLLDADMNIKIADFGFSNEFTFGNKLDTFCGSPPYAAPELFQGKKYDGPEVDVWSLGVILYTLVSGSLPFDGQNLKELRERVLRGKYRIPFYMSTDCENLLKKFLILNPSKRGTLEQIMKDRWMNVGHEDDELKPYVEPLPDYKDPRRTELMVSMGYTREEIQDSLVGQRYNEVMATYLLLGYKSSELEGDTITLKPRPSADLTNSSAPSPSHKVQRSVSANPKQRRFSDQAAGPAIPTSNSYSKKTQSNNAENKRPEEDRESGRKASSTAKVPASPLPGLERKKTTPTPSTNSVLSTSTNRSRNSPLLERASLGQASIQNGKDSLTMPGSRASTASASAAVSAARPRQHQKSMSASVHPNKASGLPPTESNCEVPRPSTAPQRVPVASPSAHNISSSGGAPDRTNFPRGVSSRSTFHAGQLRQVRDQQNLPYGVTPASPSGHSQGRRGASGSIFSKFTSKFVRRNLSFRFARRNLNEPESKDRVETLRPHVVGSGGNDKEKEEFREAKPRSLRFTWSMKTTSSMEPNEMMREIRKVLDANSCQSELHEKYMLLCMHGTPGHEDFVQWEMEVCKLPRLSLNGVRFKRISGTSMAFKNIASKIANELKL

CN(C)C(=O)c1cc2cnc(Nc3ccc(-c4csc5c(=O)cc(N6CCOCC6)oc45)cc3)nc2n1C1CCCC1 [SRX3177]
remaining binding at 1 µM [1]: 34%
remaining binding at 1 µM [2]: 72%
remaining binding at 1 µM ([3]; CSF1R-autoinhibited): 60%
remaining binding at 1 µM ([3]; CSF1R): 100%
remaining binding at 1 µM [4]: 71%
remaining binding at 1 µM [5]: 97%
remaining binding at 1 µM [6]: 72%
remaining binding at 1 µM [7]: 98%
remaining binding at 1 µM [8]: 46%
remaining binding at 1 µM [9]: 2.1%
remaining binding at 1 µM [10]: 100%
remaining binding at 1 µM [11]: 81%
remaining binding at 1 µM [12]: 79%
remaining binding at 1 µM [13]: 98%
remaining binding at 1 µM [14]: 4.8%
remaining binding at 1 µM [15]: 21%
remaining binding at 1 µM [16]: 93%
remaining binding at 1 µM [17]: 90%
remaining binding at 1 µM ([18]; RSK1(Kin.Dom.1-N-terminal) (RPS6KA1)): 100%
remaining binding at 1 µM ([18]; RSK1(Kin.Dom.2-C-terminal) (RPS6KA1)): 100%
remaining binding at 1 µM [19]: 67%
remaining binding at 1 µM [20]: 96%
remaining binding at 1 µM [21]: 46%
remaining binding at 1 µM [22]: 97%
remaining binding at 1 µM [23]: 75%
remaining binding at 1 µM [24]: 100%
remaining binding at 1 µM [25]: 45%
remaining binding at 1 µM [26]: 100%
remaining binding at 1 µM [27]: 76%
remaining binding at 1 µM [28]: 45%
remaining binding at 1 µM [29]: 99%
remaining binding at 1 µM [30]: 35%
remaining binding at 1 µM [31]: 59%
remaining binding at 1 µM [32]: 56%
